Source: article PMC7590976, “Detection of Active Granzyme A in NK92 Cells with Fluorescent Activity-Based Probe” (Journal of Medicinal Chemistry, 2020)
Where “and” joins values, the source holds several entries; their conditions need not be identical. Equal entries are not always repeated. Non-standard residues stand in square brackets, D forms with d. *: point of attachment. Oic = O=C(O)[C@@H]1C[C@@H]2CCCC[C@@H]2N1; ACC = NC(=O)Cc1cc(=O)oc2cc(N*)ccc12

Assays:
[1] = target: T1, GrB (Homo sapiens, UniProt P10144); test: GrA substrate selectivity testing on GrB; format: biochemical; conditions: substrate 200 μM (Fig 3A) or 67 μM, 18 nM GrB
T1 construct: made in house; host or cells: Pichia pastoris
From the text: Since GrA and GrK are the most structurally similar Grs, they may recognize and hydrolyze the same natural and synthetic substrates. Therefore, we tested whether our new GrA substrates are also recognized by GrK or GrB (Figure 3A). For this experiment, we screened substrates SK8 to SK28 and a GrKref substrate (Ac-Tyr-Arg-Phe-Lys-ACC) or GrBref substrate (Ac-Ile-Glu-Pro-Asp-ACC) at the same concentration using a plate reader, and we monitored the increase in fluorescence over time. The linear portions of the diagram were analyzed, and as we expected, the majority of the substrates were well recognized by GrK, even better than their recognition by GrA. […] Based on that, we concluded that Tic-Gly-Oic-Arg is a leading sequence for a specific potent inhibitor and ABP for GrA.
Figure 3 (A) GrA substrate selectivity testing on GrK and GrB. Substrates SK8–SK28 and the reference GrK and GrB substrates were placed in a 96-well plate at a concentration of 200 μM and treated with GrK or GrB. […] Data present the average of 2 replicates as adjusted RFU/s.
Figure S2. Selectivity of SK15 substrate toward selected serine proteases (GrA, GrB, GrM, GrK,
PR3, and hNE). The reference substrates were as follows: Ac-Ile-Gly-Pro-Arg-ACC for GrA, Ac -Tyr-
Arg-Phe-Lys-ACC for GrK, Ac-Ile-Glu-Pro-Asp-ACC for GrB, Ac-Lys-Val-Pro-Leu-ACC for GrM,
Ac-Glu(O-Bzl)-Lys(Ac)-Hyp(Bzl)-Nva-ACC for PR3 and Ac-Arg(NO)2-Glu(Bzl)-Oic-Abu-ACC for hNE.
Substrates were placed in a 96-well plate at a concentration of 67 µM and treated with optimal
and emission wavelengths. Data present the average of 2 replicates as adjusted RFU/s.
Figure S3. Detection of active GrA in NK92 cells.
(also on this page, place not known: S K15 hNE) . Ac-Tyr- -Arg(NO)2-Glu(Bzl)-Oic-Abu-ACC ( 89 G rA cell s. reference reference SK15 reference SK15 reference SK15 reference SK15 reference SK15 0 50 100 substrate turnover, %RFU/s PR3GrMGrBGrK hNEGrA SK15 selectivity) […]

[2] = target: T2, GrA (Homo sapiens, UniProt P12544); test: Steady-state Michaelis–Menten kinetics of fluorogenic ACC substrates with GrA; format: biochemical; conditions: GrA 93 nM, 37 °C, ACC fluorescence 355/460 nm
T2 construct: made in house; host or cells: Pichia pastoris
T2 sequence (P12544 29-262): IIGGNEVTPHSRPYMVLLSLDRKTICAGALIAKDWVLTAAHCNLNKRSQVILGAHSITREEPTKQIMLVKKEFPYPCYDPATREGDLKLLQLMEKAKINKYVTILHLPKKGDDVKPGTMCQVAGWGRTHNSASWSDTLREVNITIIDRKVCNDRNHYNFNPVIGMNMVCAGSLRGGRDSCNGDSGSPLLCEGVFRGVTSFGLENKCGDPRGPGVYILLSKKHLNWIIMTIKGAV
From the text: All chemical and biological reagents were purchased from commercial suppliers and used without further purification. The following reagents for solid phase peptide synthesis, Rink Amide RA resin (particle size 200–300 mesh, loading 0.74 mmol/g), 2-chlorotrityl chloride resin, Fmoc-protected amino acids, biotin, 1-[bis(dimethylamino)methylene]-1H-1,2,3-triazolo[4,5-b] pyridinium 3-oxid hexafluorophosphate (HATU), piperidine, diisopropylcarbodiimide (DICI), and trifluoroacetic acid (TFA), were purchased from Iris Biotech GmbH (Marktredwitz, Germany); anhydrous N-hydroxybenzotriazole (HOBt, purity >98%) was purchased from Creosauls; 2,4,6-collidine (2,4,6-trimethylpyridine), HPLC pure acetonitrile, and triisopropylsilane (TIPS) were purchased from Sigma-Aldrich (Poznan, Poland); and N,N-diisopropylethylamie (DIPEA) was purchased from VWR International (Gdansk, Poland). Solvents such as N,N-dimethylformamide (DMF), dichloromethane (DCM), methanol (MeOH), diethyl ether (Et2O), and acetic acid (AcOH) were purchased from Avantor (Gliwice, Poland). Cy5 was purchased from Lumiprobe GmbH (Hannover, Germany). Human neutrophil elastase was purchased from BioCentrum (Kraków, Poland) and proteinase 3 from Athens Research Technology (Athens, USA). Anti-GrA antibody (rabbit, monoclonal, ab209205) was obtained from Abcam (Cambridge, Great Britain). All cell lines were purchased from DSMZ (Braunschweig, Germany) or ATCC (Manassas, USA). All kinetic assays were performed using a Spectra Max Gemini XPS spectrofluorometer (Molecular Devices) on 96-well Corning plates. The parameters of the process were as follows: 37 °C; excitation/emission wavelength, 355/460 nm; cutoff, 455 nm; varying concentrations of substrates and enzyme. All measurements were performed in duplicate, and the data represent the average of these repetitions

[3] = target: T2, GrA; test: Second-order inhibition rate constant kobs/I toward GrA, pseudo-first-order conditions; format: biochemical; conditions: pseudo-first-order; substrate SK15 10 μM; inhibitor 714–333 nM; GrA 350 nM added; pH 7.5, 37 °C; average of at least three experiments with SD
Protocol: We calculated the apparent second-order rate constants for inhibition (kobs(app)/I) of GrA-mediated SK15I under pseudo first-order conditions by serially diluting the new inhibitor in the range of 714–333 nM with a constant optimal substrate (SK15) concentration of 10 μM (Figure 3B).
The second-order inhibition rate constant (kobs/I expressed in M^–1 s^–1) toward GrA was measured under pseudo-first-order kinetic conditions. Ten microliters of substrate (SK15) was mixed with varying inhibitor or probe concentrations and incubated at 37 °C for 15 min. […] Experiments are presented as the average of at least three experiments with standard deviation.

[4] = tested on: GrA; test: Residual activity assay, GrA preinhibited with SK15I or SK15.5; format: biochemical, human; conditions: substrate SK15; preincubation 30 min, 37 °C
Protocol: (§1) We wondered whether the selectivity of our SK15-based molecules for GrA would be maintained by substrate structure modifications, such as replacing ACC with a diphenyl phosphonate warhead and changing the N-terminus from acetyl to the cyanine derivative Cy5.
(§2) As a control, enzymes without inhibitor and probe were tested.

[5] = target: T3, GrK (Homo sapiens, UniProt P49863); test: Residual activity assay, GrK; format: biochemical; conditions: 488 nM GrK preincubated with 10 μM compound 30 min 37 °C; 200 μM GrKref
T3 construct: made in house; host or cells: Pichia pastoris
T3 sequence (P49863 27-264): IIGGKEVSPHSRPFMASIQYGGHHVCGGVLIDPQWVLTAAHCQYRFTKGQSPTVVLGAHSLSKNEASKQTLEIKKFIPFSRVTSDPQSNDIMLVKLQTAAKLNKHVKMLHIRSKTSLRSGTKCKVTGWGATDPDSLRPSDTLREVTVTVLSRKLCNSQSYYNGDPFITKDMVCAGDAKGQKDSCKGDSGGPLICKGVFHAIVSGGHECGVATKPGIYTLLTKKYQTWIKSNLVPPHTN
Protocol: as §1, §2

[6] = target: T1, GrB; test: Residual activity assay, GrB; format: biochemical; conditions: 18 nM GrB preincubated with 10 μM compound 30 min 37 °C; 200 μM GrBref
Protocol: as §1, §2

[7] = tested on: GrM; test: Residual activity assay, GrM; format: biochemical, human; conditions: 74 nM GrM preincubated with 10 μM compound 30 min 37 °C; substrate Ac-Lys-Val-Pro-Leu-ACC
Protocol: as §1, §2

[8] = tested on: PR3; test: Residual activity assay, PR3; format: biochemical; conditions: 3.4 nM PR3 preincubated with 10 μM compound 30 min 37 °C; substrate Ac-Glu(O-Bzl)-Lys(Ac)-Hyp(Bzl)-Nva-ACC
Protocol: as §1, §2

[9] = tested on: hNE; test: Residual activity assay, hNE; format: biochemical, human; conditions: 3.3 nM hNE preincubated with 10 μM compound 30 min 37 °C; substrate Ac-Arg(NO)2-Glu(Bzl)-Oic-Abu-ACC
Protocol: as §1, §2

[10] = target: T4, GrA (Homo sapiens, UniProt P12544); test: In-gel detection of recombinant GrA with SK15.5 (SDS-PAGE); format: binding; conditions: GrA forms 250 nM, probe 500 nM, 1 h, Western blot
T4 construct: made in house; host or cells: Pichia pastoris
T4 sequence (P12544 27-262): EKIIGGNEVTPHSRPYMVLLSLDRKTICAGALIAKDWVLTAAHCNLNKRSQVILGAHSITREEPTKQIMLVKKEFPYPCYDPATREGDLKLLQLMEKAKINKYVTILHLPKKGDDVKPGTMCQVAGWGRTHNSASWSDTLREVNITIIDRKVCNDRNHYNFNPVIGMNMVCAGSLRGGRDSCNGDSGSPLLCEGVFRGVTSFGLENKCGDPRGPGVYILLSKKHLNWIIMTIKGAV
Protocol: (§3) Next, we tested the utility of our fluorescent probe for the in-gel detection of active GrA in test samples. […] We then ran a simple SDS-PAGE assay to detect labeled GrA (Figure 4A). […] In our hands, the probe bound to the enzyme, as indicated by the fluorescent 35 kDa species, after the minimal incubation time (5 min). […] The optimal concentration was 500 nM (strong signal) (Figure 4B).
(§4) (A) Incubation time of SK15.5 with enzyme optimization. […] (D) GrA in-gel detection in NK92 cell lysates. […] The results are representative of at least 2 replicates.
(§5) In contrast to the closely related GrB, GrH, GrM, and GrK, GrA is a homodimer formed by stable disulfide-linked subunits.[26] Since the subunits are oriented in opposite directions, the surrounding area may form an exosite.[26]
(§6) In the incubation time optimization assay, the enzyme and probe concentrations were constant (250 nM), and the incubation time ranged from 0 to 120 min. […] Enzyme was incubated with probe in a volume of 80 μL, followed by the reduction with 40 μL of 3 × SDS/DTT for 5 min at 95 °C. Samples were centrifuged (3 min, 4500g), and 40 μL of each sample was run on 4–12% Bis-Tris 10-well gels (Invitrogen). The first well was loaded with 2 μL of the protein marker PageRuler Plus Prestained Protein Ladder (Thermo Scientific). Electrophoresis was conducted at 165 V for 37 min at room temperature. […] Total sample volume was 80 μL, to which 40 μL of 3× SDS/DTT was added and boiled for 5 min at 95 °C. Samples were centrifuged (3 min, 4500g), and 40 μL of each sample was run on 4–12% Bis-Tris 10-well gels (Invitrogen). Each form of the enzyme without SK15.5 and probe itself were run as controls. The first well was loaded with 2 μL of protein marker PageRuler Plus Prestained Protein Ladder (Thermo Scientific). Electrophoresis and membrane transfer were conducted in the same manner as above.

[11] = target: T2, GrA; test: as above; format: binding; conditions: GrA 250 nM, 37 °C
Protocol: as §3, §4, §5, §6

[12] = tested on: GrA in NK92 cell lysates; conditions: lysates 1 × 10^7 cells/mL, probe 250 nM to 2 μM, 1 h, 37 °C
[13] = tested on: human GrA; test: P1 library screening (individual substrates Ac-Ile-Ser-Pro-P1-ACC) with GrA; conditions: relative to best P1 residue (100%); substrates at the same concentration; fluorescence 355/460 nm

T1 sequence (P10144 21-247): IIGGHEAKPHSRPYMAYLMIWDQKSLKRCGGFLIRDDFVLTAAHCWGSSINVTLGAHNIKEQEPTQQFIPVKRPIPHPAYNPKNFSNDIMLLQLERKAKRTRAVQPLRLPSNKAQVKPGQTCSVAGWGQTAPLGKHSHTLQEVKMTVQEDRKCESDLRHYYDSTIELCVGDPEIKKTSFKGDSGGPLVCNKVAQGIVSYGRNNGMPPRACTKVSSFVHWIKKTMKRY

## Ac-IG[Oic]R-{ACC} (SMILES CC[C@H](C)[C@H](NC(C)=O)C(=O)NCC(=O)N1[C@H](C(=O)N[C@@H](CCCNC(=N)N)C(=O)Nc2ccc3c(CC(N)=O)cc(=O)oc3c2)C[C@@H]2CCCC[C@@H]21) [SK17]
[1]
  hydrolysis by GrB (in words): significantly hydrolyzed

## Ac-Ile-Gly-Pro-Arg-ACC (Ac-IGPR-{ACC}; SMILES CC[C@H](C)[C@H](NC(C)=O)C(=O)NCC(=O)N1CCC[C@H]1C(=O)N[C@@H](CCCNC(=N)N)C(=O)Nc1ccc2c(CC(N)=O)cc(=O)oc2c1) [SK7, reference compound]
[2]; assay buffer pH 7.5
  kcat: 0.035 ± 0.00076 s⁻¹
  kcat/KM: 78 ± 6.60 s^–1 M^–1 and 78 ± 6.6 M^–1 s^–1
[2]; substrate 1000–7.81 μM, 50 mM Tris, 100 mM NaCl, 5 mM CaCl2, 0.01% Tween-20, pH 7.5, Michaelis–Menten nonlinear regression, duplicate
  Km: 450 ± 1.3 µM

## Ac-Met(O)-Gly-Hyp(Bzl)-3-Abz-ACC [SK13]
[1]
  hydrolysis by GrB (in words): significantly hydrolyzed

## Cy5-Ahx-Tic-Gly-Oic-Arg^P(OPh)2 [SK15.5]
[3]
  kobs/I: 3521 ± 296 M^–1 s^–1
[4]
  residual GrA activity after preinhibition (in words): completely blocked
[5]
  inhibition of GrK: 3%
[6]
  inhibition of GrB: almost no inhibition effect
[7]
  inhibition of GrM: almost no inhibition effect
[8]
  inhibition of PR3: almost no inhibition effect
[9]
  inhibition of hNE: almost no inhibition effect
[10]
  probe labeling of GrA zymogen (in words): no signal was detected in the zymogen
[11]; 30 min, SDS-PAGE
  optimal probe concentration for GrA labeling (strong signal): 500 nM
[11]; 30 min, SDS-PAGE, estimated
  detection limit, minimum probe concentration needed for GrA labeling: approximately 50 nM
[11]; probe 250 nM
  incubation time after which labeling no longer increases (maximal labeling): 30 min
  minimal incubation time after which probe-bound GrA is detected: 5 min
[12]
  selectivity of labeling in NK92 cell lysates (in words): did not observe any additional bands

## L-Arg
[13]
  relative GrA activity on P1 library substrate Ac-Ile-Ser-Pro-P1-ACC: 92%

## L-Asp
[13]
  relative GrA activity on P1 library substrate Ac-Ile-Ser-Pro-P1-ACC: 17.8%

## L-Lys
[13]
  relative GrA activity on P1 library substrate Ac-Ile-Ser-Pro-P1-ACC: 21%
